Laboratory results reported in patent publication US7183302B2, “Iminothiazolidinones as inhibitors of HCV replication” (priority 2002, dated 2007).
Where two headings read alike, the source gives them in different places.

What was measured:
[1] = tested on: HCV replicon (HCV 1b-377-neo replicon cells); assay: HCV replicon cell line and FRET assay; assay type: cell-based
HCV replicon [2] = assay: Western analysis of NS3 in replicon cells; assay type: cell-based
Protocol: EC50 values were also determined by Western analysis performed according to the instructions for Chemiluminescence Immunology Kit (Cat# NEL105) Amersham, Arlington Heights, Ill. using a Molecular Dynamics Storm 860 phosphoimager and associated software. Experiments were done in duplicate. The primary and secondary antibody dilutions were at 1 to 5,000. Antisera was generated by immunizing rabbits with purified NS3 protease made from an E. Coli expression vector encoding the first 181 amino acids of HCV 1a NS3 with subsequent boosts. Bleeds were tested weekly and boosts continued until a positive signal on a control western was seen. Secondary antibody was a BioRad (#170-6515) Goat anti-Rabbit IgG HRP Conjugate (Cat# 170-6515) BioRad, Hercules, Calif. The protein samples for western analysis were from the same wells used for the FRET assay and were prepared by the addition of an equal volume of 2×SDS-PAGE buffer to the FRET assay mixture, heating and loading on a 10% gel for SDS-PAGE. Interferon alpha (Cat# I-4276) Sigma, St. Louis, Mo. (IFN-α) was obtained and stored as recommended.

HCV replicon [3] = assay: HCV RNA detection by RT-PCR in replicon cells
[4] = tested on: wild-type HCV 377-neo replicon in Huh-7 cells; assay: Colony formation under G418 selection, wild-type replicon RNA
[5] = tested on: Y > H replicon cells (Huh-7); assay: Alamar blue CC50 on Y > H replicon cells
[6] = tested on: HCV 1b-377-neo replicon cells (Huh-7); assay: Alamar blue conversion (cellular toxicity, CC50), wild-type replicon cells; assay type: cell-based
[7] = tested on: Compound 1-r replicon cells (HCV 377-neo); assay: FRET assay on selected Compound 1-r replicon cells; assay type: cell-based; details: initial test
Protocol: HCV 377-neo replicon cells were plated in 100-mm plates with ˜25% confluence after 24 hr seeding. Compound 1 was added at the final concentrations of 5, 10 and 20 μM in the presence of G418. Wild type replicon cells in the absence of the compound were used as a control. After 5–6 weeks, both wt replicon cells and selected cells were tested for their sensitivity to Compound 1. In addition, cell lines derived from individual colonies from different concentrations of selective Compound 1 were also isolated, expanded and tested. In the initial test, approximately 60-fold resistance, judged by the FRET assay, was observed between wt replicon cells and selected replicon cells (designated as Compound 1-r replicon cells).

[8] = tested on: Y2065C Blast/Luciferase HCV replicon; assay type: cell-based, HCV 1b
[9] = tested on: wild-type Blast/Luciferase HCV replicon; assay type: cell-based, HCV 1b
[10] = Hepatitis C virus, HCV replicon cell line, FRET assay, read-out: Replicon Inhibition Range EC50
[11] = HCV replicon cell line, FRET assay, read-out: Replicon Inhibition Range EC50

`O=C(Nc1ccc(C2S/C(=N\c3cccc(F)c3)N(Cc3ccco3)C2=O)cc1)[C@@H]1CCCN1C(=O)Cc1ccccc1` (stereo partly shown) [Compound 127] was tested, and the EC50 [1, 10] was < 0.1 µM.
In the case of `O=C(Nc1ccc(C2S/C(=N\c3ccc(N4CCOCC4)cc3)N(Cc3cccnc3)C2=O)cc1)[C@@H]1CCCN1C(=O)OCc1ccccc1` (stereo partly shown) [Compound 81], the EC50 [1, 11] is reported as 0.1 to 1 µM and the EC50 ([1]; Hepatitis C virus, 72 h, FRET assay, read-out: EC50 in monotherapy) is reported as 0.009 to 0.011 µM.
For `O=C(Nc1ccc(C2S/C(=N\c3ccc(N4CCOCC4)cc3)N(Cc3cccnc3)C2=O)cc1)[C@@H]1CCCN1C(=O)OCc1ccccc1` (stereo partly shown) [Compound 94], the EC50 [1, 10] was < 0.1 µM.
For IFN-α, the EC50 (HCV replicon [2]) was 1.9 units of IFN-α per milliliter, the EC50 ([1]; FRET) was 2.9 units of IFN-α per milliliter and the EC50 (HCV replicon [3]) was 5.3 units of IFN-α per milliliter.
For `C[C@H](NC(=O)OCc1ccccc1)C(=O)Nc1ccc(C2S/C(=N\c3cccc(F)c3)N(Cc3ccco3)C2=O)cc1` (stereo partly drawn) [Compound 1, (1S-(4-[2-(3-Fluorophenylimino)-3-furan-2-ylmethyl-4-oxo-thiazolidin-5-yl]-phenylcarbamoyl)ethyl)carbamic acid benzyl ester], the Number of colonies ([4]; Wild-type RNA transfected, 2 μM Compound 1, 3 weeks G418 selection) was 3, the “reduction in colony number” value ([4]; wild-type replicon RNA, 2 μM Compound 1) was 95% and the CC50 [5] was > 5 µM. The CC50 [6] was > 5 µM and the “resistance between wt replicon cells and selected replicon cells” value [7] was “approximately 60 fold”.
In the case of `O=C(Nc1ccc(C2S/C(=N\c3cccc(Oc4ccccc4)c3)N(Cc3ccco3)C2=O)cc1)[C@@H]1CCCN1C(=O)OCc1ccccc1` (stereo partly shown) [Compound 34], the EC50 [1, 10] is reported as 0.1 to 1 µM.
With `C[C@H](NC(=O)OCc1ccccc1)C(=O)Nc1ccc(C2S/C(=N\c3ccc(N4CCOCC4)cc3)N(c3ccccn3)C2=O)cc1` (stereo partly shown) [Compound 93] the EC50 [1, 10] was 0.1 to 1 µM.
`C[C@H](NC(=O)OCc1ccccc1)C(=O)Nc1ccc(C2S/C(=N\c3ccc(N4CCOCC4)cc3)N(Cc3ccccn3)C2=O)cc1` (stereo partly shown) [Compound 80] gave an EC50 [1, 11] of 0.1 to 1 µM.
For `C[C@H](NC(=O)Cc1ccccc1)C(=O)Nc1ccc(C2S/C(=N\c3cccc(F)c3)N(Cc3ccco3)C2=O)cc1` (stereo partly drawn) [Compound 124, (N-{4-[2-(3-fluorophenylimino)-3-furan-2-ylmethyl-4-oxo-thiazolidin-5-yl]phenyl}-2S-(phenylacetylamino))propionamide], the decrease in replication ([8]; Y2065C replicon, 0.5 μM Compound 124) was 10–15%, the “rlu 48 h” value ([8]; Y > C clone, 0.5 μM 124, 48 h) was 7186 rlu and the “rlu 72 h” value ([8]; Y > C clone, 0.5 μM 124, 72 h) was 9696 rlu. The CC50 [5] was > 5 µM, the CC50 [6] was > 5 µM and the “replication of the wild-type replicon” value ([9]; 0.5 μM Compound 124) was “completely inhibited”. For the same compound, the “rlu 48 h” value ([9]; wt clone, 0.5 μM 124, 48 h) was 3237 rlu and the “rlu 72 h” value ([9]; wt clone, 0.5 μM 124, 72 h) was 3184 rlu.
Work on `CC(C)(C)/N=C1\SC(c2ccc(NC(=O)[C@@H]3CCC(=O)N3C(=O)OCc3ccccc3)cc2)C(=O)N1Cc1ccccn1` (stereo partly shown) [Compound 90] yielded an EC50 [1, 10] of 0.1 to 1 µM.
`C[C@H](NC(=O)OCc1ccccc1)C(=O)Nc1ccc(C2S/C(=N\c3ccc(C(F)(F)F)cc3)N(Cc3ccco3)C2=O)cc1` (stereo partly shown) [Compound 62] showed an EC50 [1, 11] of 1 to 5 µM.
